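Grown in 96-well plates, cells were treated for 48 hours with each compound at five concentrations. Insufficient inhibition: endpoint recorded as highest concentration tested. GI50: concentration for 50% inhibition of growth.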 Activity calls are given as the source filed them. No stated cut-off is given here; in the data, active = GI50 up to about 1.1 µM and inactive = higher.
Key:
Test in all cases: NCI-60 cell line screen, 48 h
UACC-257 = tested on: UACC-257
ACHN = tested on: ACHN
786-0 = tested on: 786-0
SNB-19 = tested on: SNB-19
KM12 = tested on: KM12
DU-145 = tested on: DU-145
EKVX = tested on: EKVX
SF-268 = tested on: SF-268
RXF 393 = tested on: RXF 393
LOX IMVI = tested on: LOX IMVI
UACC-62 = tested on: UACC-62
SN12C = tested on: SN12C
SF-295 = tested on: SF-295
SW-620 = tested on: SW-620
NCI-H226 = tested on: NCI-H226
IGROV-1 = tested on: IGROV-1
OVCAR-3 = tested on: OVCAR-3
A498 = tested on: A498
HCT-15 = tested on: HCT-15
Hs-578T = tested on: Hs-578T
HT-29 = tested on: HT-29
NCI-H460 = tested on: NCI-H460
CAKI-1 = tested on: CAKI-1
COLO 205 = tested on: COLO 205
M14 = tested on: M14
HOP-62 = tested on: HOP-62
A549 = tested on: A549
HCT-116 = tested on: HCT-116
PC-3 = tested on: PC-3
MDA-N = tested on: MDA-N
OVCAR-4 = tested on: OVCAR-4
MDA-MB-435 = tested on: MDA-MB-435
NCI/ADR-RES = tested on: NCI/ADR-RES
SK-MEL-28 = tested on: SK-MEL-28
U-251 = tested on: U-251
NCI-H23 = tested on: NCI-H23
UO-31 = tested on: UO-31
SK-MEL-5 = tested on: SK-MEL-5
HCC 2998 = tested on: HCC 2998
HOP-92 = tested on: HOP-92
SK-MEL-2 = tested on: SK-MEL-2
SF-539 = tested on: SF-539
OVCAR-8 = tested on: OVCAR-8
SK-OV-3 = tested on: SK-OV-3
OVCAR-5 = tested on: OVCAR-5
TK-10 = tested on: TK-10
SNB-75 = tested on: SNB-75
MDA-MB-231 = tested on: MDA-MB-231
NCI-H522 = tested on: NCI-H522
HL-60 = tested on: HL-60
SR = tested on: SR
MOLT-4 = tested on: MOLT-4
Malme-3M = tested on: Malme-3M
CCRF-CEM = tested on: CCRF-CEM
K562 = tested on: K562
RPMI-8226 = tested on: RPMI-8226

SMILES: COc1ccc2c(ccc3c(C(=O)NCCN(C)CCNC(=O)c4cn(C)c5c4ccc4cc(OC)ccc45)cn(C)c32)c1
- GI50 (UACC-257): 1.58 µM (inactive)
- GI50 (ACHN): 1.72 µM (inactive)
- GI50 (786-0): 1.53 µM (inactive)
- GI50 (SNB-19): 1.95 µM (inactive)
- GI50 (KM12): 1.66 µM (inactive)
- GI50 (DU-145): 1.73 µM (inactive)
- GI50 (EKVX): 1.3 µM (inactive)
- GI50 (SF-268): 1.95 µM (inactive)
- GI50 (RXF 393): 1.4 µM (inactive)
- GI50 (LOX IMVI): 2.15 µM (inactive)
- GI50 (UACC-62): 1.84 µM (inactive)
- GI50 (SN12C): 1.49 µM (inactive)
- GI50 (SF-295): 1.85 µM (inactive)
- GI50 (SW-620): 2.18 µM (inactive)
- GI50 (NCI-H226): 0.628 µM (active)
- GI50 (IGROV-1): 1.02 µM (active)
- GI50 (OVCAR-3): 1.51 µM (inactive)
- GI50 (A498): 20 µM (inactive)
- GI50 (HCT-15): 1.26 µM
- GI50 (Hs-578T): 1.95 µM (inactive)
- GI50 (HT-29): 1.4 µM (inactive)
- GI50 (NCI-H460): 1.45 µM (inactive)
- GI50 (CAKI-1): 1.62 µM (inactive)
- GI50 (COLO 205): 2.01 µM (inactive)
- GI50 (M14): 1.64 µM (inactive)
- GI50 (HOP-62): 1.44 µM (inactive)
- GI50 (A549): 1.79 µM (inactive)
- GI50 (HCT-116): 1.79 µM (inactive)
- GI50 (PC-3): 1.51 µM (inactive)
- GI50 (MDA-N): 1.57 µM (inactive)
- GI50 (OVCAR-4): 1.56 µM (inactive)
- GI50 (MDA-MB-435): 2.38 µM (inactive)
- GI50 (NCI/ADR-RES): 1.42 µM (inactive)
- GI50 (SK-MEL-28): 1.79 µM (inactive)
- GI50 (U-251): 3.16 µM (inactive)
- GI50 (NCI-H23): 1.32 µM (inactive)
- GI50 (UO-31): 1.45 µM (inactive)
- GI50 (SK-MEL-5): 1.63 µM (inactive)
- GI50 (HCC 2998): 1.47 µM (inactive)
- GI50 (HOP-92): 2.61 µM (inactive)

SMILES: O=c1ccn([C@@H]2O[C@H](CO)[C@@H](O)[C@H]2F)c(=O)[nH]1
- GI50 (UACC-257): > 100 µM (inactive)
- GI50 (ACHN): > 100 µM (inactive)
- GI50 (SK-MEL-2): > 100 µM (inactive)
- GI50 (SF-539): > 100 µM (inactive)
- GI50 (OVCAR-8): > 100 µM (inactive)
- GI50 (SNB-19): > 100 µM (inactive)
- GI50 (DU-145): > 100 µM (inactive)
- GI50 (SF-268): > 100 µM (inactive)
- GI50 (SK-OV-3): > 100 µM (inactive)
- GI50 (OVCAR-5): > 100 µM (inactive)
- GI50 (SN12C): > 100 µM (inactive)
- GI50 (SF-295): > 100 µM (inactive)
- GI50 (NCI-H226): > 100 µM (inactive)
- GI50 (TK-10): > 100 µM (inactive)
- GI50 (IGROV-1): > 100 µM (inactive)
- GI50 (A498): > 100 µM (inactive)
- GI50 (HCT-15): > 99.5 µM
- GI50 (Hs-578T): > 100 µM (inactive)
- GI50 (HT-29): > 100 µM (inactive)
- GI50 (NCI-H460): 88.7 µM (inactive)
- GI50 (COLO 205): > 100 µM (inactive)
- GI50 (M14): > 100 µM (inactive)
- GI50 (HOP-62): > 100 µM (inactive)
- GI50 (A549): > 100 µM (inactive)
- GI50 (HCT-116): > 99.8 µM (inactive)
- GI50 (SNB-75): > 100 µM (inactive)
- GI50 (MDA-N): > 100 µM (inactive)
- GI50 (OVCAR-4): > 100 µM (inactive)
- GI50 (MDA-MB-435): > 100 µM (inactive)
- GI50 (NCI/ADR-RES): > 100 µM (inactive)
- GI50 (SK-MEL-28): > 100 µM (inactive)
- GI50 (U-251): 95.1 µM (inactive)
- GI50 (NCI-H23): > 100 µM (inactive)
- GI50 (UO-31): > 100 µM (inactive)
- GI50 (HCC 2998): > 100 µM (inactive)
- GI50 (MDA-MB-231): > 100 µM (inactive)

SMILES: CCC1(c2ccc(N3C(=O)c4ccccc4C3=O)cc2)CCC(=O)NC1=O (stereo not given)
- GI50 (ACHN): > 10 µM (inactive)
- GI50 (SF-539): > 10 µM (inactive)
- GI50 (OVCAR-8): > 10 µM (inactive)
- GI50 (SNB-19): > 10 µM (inactive)
- GI50 (KM12): > 10 µM (inactive)
- GI50 (DU-145): > 10 µM (inactive)
- GI50 (EKVX): > 10 µM (inactive)
- GI50 (SF-268): > 10 µM (inactive)
- GI50 (RXF 393): > 10 µM (inactive)
- GI50 (OVCAR-5): > 10 µM (inactive)
- GI50 (SN12C): > 10 µM (inactive)
- GI50 (SF-295): > 10 µM (inactive)
- GI50 (SW-620): > 10 µM (inactive)
- GI50 (NCI-H226): > 10 µM (inactive)
- GI50 (TK-10): > 10 µM (inactive)
- GI50 (IGROV-1): > 10 µM (inactive)
- GI50 (OVCAR-3): > 10 µM (inactive)
- GI50 (HCT-15): > 10 µM
- GI50 (HT-29): > 10 µM (inactive)
- GI50 (CAKI-1): > 10 µM (inactive)
- GI50 (COLO 205): > 10 µM (inactive)
- GI50 (M14): > 10 µM (inactive)
- GI50 (A549): > 10 µM (inactive)
- GI50 (HCT-116): > 10 µM (inactive)
- GI50 (PC-3): > 10 µM (inactive)
- GI50 (SNB-75): > 10 µM (inactive)
- GI50 (OVCAR-4): > 10 µM (inactive)
- GI50 (MDA-MB-435): > 10 µM (inactive)
- GI50 (NCI/ADR-RES): > 10 µM (inactive)
- GI50 (SK-MEL-28): > 10 µM (inactive)
- GI50 (U-251): > 10 µM (inactive)
- GI50 (NCI-H23): > 10 µM (inactive)
- GI50 (UO-31): > 10 µM (inactive)
- GI50 (SK-MEL-5): > 10 µM (inactive)
- GI50 (HOP-92): > 10 µM (inactive)
- GI50 (MDA-MB-231): > 10 µM (inactive)

SMILES: O=S(=O)(O)c1cc(O)c(/N=N/c2ccc(O)cc2O)c2ccccc12
- GI50 (UACC-257): > 100 µM (inactive)
- GI50 (ACHN): > 100 µM (inactive)
- GI50 (SK-MEL-2): > 100 µM (inactive)
- GI50 (NCI-H522): 24.1 µM (inactive)
- GI50 (786-0): > 100 µM (inactive)
- GI50 (OVCAR-8): 30.8 µM (inactive)
- GI50 (SNB-19): > 100 µM (inactive)
- GI50 (HL-60): 80.5 µM (inactive)
- GI50 (KM12): 20.9 µM (inactive)
- GI50 (SR): > 100 µM (inactive)
- GI50 (EKVX): 30.9 µM (inactive)
- GI50 (SF-268): 37.5 µM (inactive)
- GI50 (SK-OV-3): 49.1 µM (inactive)
- GI50 (RXF 393): > 100 µM (inactive)
- GI50 (MOLT-4): 42.2 µM (inactive)
- GI50 (LOX IMVI): 53.1 µM (inactive)
- GI50 (Malme-3M): 76.4 µM (inactive)
- GI50 (OVCAR-5): 46.8 µM (inactive)
- GI50 (SN12C): > 100 µM (inactive)
- GI50 (SF-295): 61.8 µM (inactive)
- GI50 (SW-620): 86.3 µM (inactive)
- GI50 (NCI-H226): 3.17 µM (inactive)
- GI50 (TK-10): > 100 µM (inactive)
- GI50 (IGROV-1): 22.8 µM (inactive)
- GI50 (OVCAR-3): 27.2 µM (inactive)
- GI50 (HCT-15): 64 µM
- GI50 (Hs-578T): > 100 µM (inactive)
- GI50 (HT-29): 8.97 µM (inactive)
- GI50 (CAKI-1): > 100 µM (inactive)
- GI50 (COLO 205): 38.1 µM (inactive)
- GI50 (M14): 42.7 µM (inactive)
- GI50 (HOP-62): 66.7 µM (inactive)
- GI50 (A549): 59.3 µM (inactive)
- GI50 (HCT-116): 36.6 µM (inactive)
- GI50 (PC-3): 53.5 µM (inactive)
- GI50 (SNB-75): > 100 µM (inactive)
- GI50 (MDA-N): > 100 µM (inactive)
- GI50 (OVCAR-4): > 100 µM (inactive)
- GI50 (MDA-MB-435): 51.3 µM (inactive)
- GI50 (NCI/ADR-RES): 38.6 µM (inactive)
- GI50 (SK-MEL-28): > 100 µM (inactive)
- GI50 (U-251): > 100 µM (inactive)
- GI50 (CCRF-CEM): 40.6 µM (inactive)
- GI50 (SK-MEL-5): > 100 µM (inactive)
- GI50 (K562): > 100 µM (inactive)
- GI50 (RPMI-8226): > 100 µM (inactive)
- GI50 (HOP-92): > 100 µM (inactive)
- GI50 (MDA-MB-231): 85.7 µM (inactive)

From ChEMBL document CHEMBL1201862, “PubChem BioAssay data set” (2004)
